Source: the RepoRT retention time repository

Experiment: RP, Waters ACQUITY Premier BEH C18, 100 × 2.1 mm, 1.7 µm, 40 °C, 0.3 to 0.4 mL/min, estimated dead time 0.73 min; A: water + 0.1% formic acid; B: acetonitrile + 0.1% formic acid; gradient (min/%B) 0/0.5 0.1/0.5 10/80 10.1/99.5 12/0.5 12.1/0.5 14.5/0.5
Conditions: stereoisomer not certain

`NC(=O)CCC(NC(=O)Cc1ccccc1)C(=O)O` (stereo not drawn) [PHENYLACETYLGLUTAMINE] and `O=C(O)C(=O)c1ccccc1` [PHENYLGLYOXYLIC ACID] are within 1.5-fold of each other in LC retention time: 3.9 min for the first, 5.53 min for the second.

`O=c1c(O)c(-c2ccc(O)c(O)c2)oc2cc(O)cc(O)c12` [QUERCETIN] and `O=c1cc(-c2ccc(O)c(O)c2)oc2c(C3OC(CO)C(O)C(O)C3O)c(O)cc(O)c12` (stereo not drawn) [ORIENTIN] are within 1.5-fold of each other in LC retention time: 5.6 min for the first, 5.18 min for the second.

`CCCCCCCCCCCCC(O)C(=O)O` (stereo not drawn) [2-HYDROXYMYRISTIC ACID] and `CCCCCCCCCC(O)CC(=O)O` (stereo not drawn) [3-HYDROXYDODECANOIC ACID] are within 1.5-fold of each other in LC retention time: 8.3 min for the first, 7.65 min for the second.

First: Nc1ccn(C2OC(CO)C3OP(=O)(O)OC32)c(=O)n1 (stereo not drawn) [CYTIDINE 2',3'-CYCLIC PHOSPHATE]
Second: O=c1ccn(C2CC(O)C(CO)O2)c(=O)[nH]1 (stereo not drawn) [DEOXYURIDINE]
The LC retention time of the first is 3.5-fold lower: 0.94 min for the first, 3.27 min for the second.

`O=Cc1ccc(O)c(O)c1` [3,4-DIHYDROXYBENZALDEHYDE] and `O=C(O)c1c(O)cc(O)cc1O` [2,4,6-TRIHYDROXYBENZOIC ACID] are within 1.5-fold of each other in LC retention time: 3.49 min for the first, 3.9 min for the second.

`COc1ccc2[nH]cc(CCN)c2c1` [5-METHOXYTRYPTAMINE] and `NCCc1c[nH]c2ccc(O)cc12` [SEROTONIN] are within 1.5-fold of each other in LC retention time: 3.73 min for the first, 3.44 min for the second.

`O=c1c(-c2ccc(O)cc2)coc2cc(O)ccc12` [DAIDZEIN] and `COc1ccc(-c2coc3cc(O)ccc3c2=O)cc1` [FORMONONETIN] are within 1.5-fold of each other in LC retention time: 5.4 min for the first, 6.65 min for the second.

First: CSCCC(=O)C(=O)O [2-OXO-4-METHYLTHIOBUTANOIC ACID]
Second: O=C(O)CCC(=O)O [SUCCINATE]
The LC retention time of the first is 2.1-fold higher: 3.7 min for the first, 1.76 min for the second.

First: CCC(C(=O)O)C(=O)O [ETHYLMALONATE]
Second: O=C(O)CC(CC(=O)O)C(=O)O [1,2,3-PROPANETRICARBOXYLIC ACID]
The LC retention time of the first is 1.6-fold higher: 3.85 min for the first, 2.39 min for the second.

First: Nc1nc2ncc(CNc3ccc(C(=O)NC(CCC(=O)O)C(=O)O)cc3)nc2c(=O)[nH]1 (stereo not drawn) [FOLATE]
Second: Nc1nc2c(ncn2C2OC(COP(=O)(O)OP(=O)(O)OC3OC(CO)C(O)C(O)C3O)C(O)C2O)c(=O)[nH]1 (stereo not drawn) [GUANOSINE DIPHOSPHATE MANNOSE]
The LC retention time of the first is 2.9-fold higher: 4.02 min for the first, 1.37 min for the second.

`CC1(C(=O)O)CCC2(C)CCC3(C)C(=CC(=O)C4C5(C)CCC(OC6OC(C(=O)O)C(O)C(O)C6OC6OC(C(=O)O)C(O)C(O)C6O)C(C)(C)C5CCC43C)C2C1` (stereo not drawn) [GLYCYRRHIZIN] and `CC1(C(=O)O)CCC2(C)CCC3(C)C(=CC(=O)C4C5(C)CCC(O)C(C)(C)C5CCC43C)C2C1` (stereo not drawn) [GLYCYRRHETINIC ACID] are within 1.5-fold of each other in LC retention time: 6.4 min for the first, 8.08 min for the second.

First: Cc1cnc(=O)[nH]c1N [5-METHYLCYTOSINE]
Second: O=c1[nH]c(=O)c2nccnc2[nH]1 [2,4-DIHYDROXYPTERIDINE]
The LC retention time of the first is 3.3-fold lower: 0.94 min for the first, 3.08 min for the second.

`Cc1nccc2c1[nH]c1ccccc12` [HARMAN] and `O=C(O)c1cc(=O)c2ccccc2[nH]1` [KYNURENATE] are within 1.5-fold of each other in LC retention time: 4.24 min for the first, 4.18 min for the second.

`Cc1ccc(C(C)C)c(O)c1` [THYMOL] and `COc1cc(CNC(=O)CCCCCCC(C)C)ccc1O` [DIHYDROCAPSAICIN] are within 1.5-fold of each other in LC retention time: 5.78 min for the first, 7.49 min for the second.

Compared with `O=C(O)C[C@H]1CC[C@@H](O)CC1` [CIS-4-HYDROXYCYCLOHEXYLACETIC ACID], `O=C(O)CCCCC1CCSS1` [(R)-LIPOIC ACID] is 1.7-fold higher in LC retention time: 4.12 min for the first, 6.93 min for the second.

`CCCCCCCCC=CCCCCCCCC(=O)OCC(O)CO` (stereo not drawn) [OLEOYL-GLYCEROL] and `CCCCCC=CCC=CCCCCCCCC(=O)O` [LINOLEATE] are within 1.5-fold of each other in LC retention time: 9.52 min for the first, 7.75 min for the second.

First: O=C(O)CCCCCCCCCCCCCCC(=O)O [HEXADECANEDIOIC ACID]
Second: CC(=O)NCCCC(=O)O [4-ACETAMIDOBUTANOATE]
The LC retention time of the first is 2.3-fold higher: 7.67 min for the first, 3.27 min for the second.

`COc1cc(C=CC(=O)O)cc(OC)c1OC` [3,4,5-TRIMETHOXYCINNAMIC ACID] and `COc1ccc(-c2cc(=O)c3c(OC)c(OC)c(OC)c(OC)c3o2)cc1` [TANGERETIN] are within 1.5-fold of each other in LC retention time: 5.7 min for the first, 7.26 min for the second.

First: CC(=O)OCC[N+](C)(C)C [ACETYLCHOLINE]
Second: CC(C)C(=O)OC(CC(=O)[O-])C[N+](C)(C)C [ISOBUTYRYL-L-CARNITINE]
The LC retention time of the first is 4-fold lower: 0.961 min for the first, 3.82 min for the second.

Compared with `C=CCC(=NOS(=O)(=O)O)SC1OC(CO)C(O)C(O)C1O` (stereo not drawn) [SINIGRIN], `O=c1c2cc(O)c(O)cc2oc2cc(O)c(C3OC(CO)C(O)C(O)C3O)c(O)c12` (stereo not drawn) [MANGIFERIN] is 1.8-fold higher in LC retention time: 2.03 min for the first, 3.75 min for the second.

Compared with `CCC=CCC1C(=O)CCC1CC(=O)OC` (stereo not drawn) [METHYL JASMONATE], `COC(=O)CCCN` [METHYL 4-AMINOBUTYRATE] is 5.3-fold lower in LC retention time: 7.43 min for the first, 1.4 min for the second.

Going from `CNC(=O)c1cccnc1` [N-METHYLNICOTINAMIDE] to `O=C(O)c1ccccc1` [BENZOATE], the LC retention time rises from 1.05 min to 4.51 min (4.3-fold).

Compared with `Nc1ccccc1S(=O)(=O)O` [ANILINE-2-SULFONATE], `O=C(O)c1ccc[nH]1` [PYRROLE-2-CARBOXYLATE] is 1.7-fold higher in LC retention time: 2.54 min for the first, 4.38 min for the second.

Going from `NC(=O)c1ccc[n+](C2OC(COP(=O)(O)OP(=O)(O)OCC3OC(n4cnc5c(N)ncnc54)C(O)C3O)C(O)C2O)c1` (stereo not drawn) [BETA-NICOTINAMIDE ADENINE DINUCLEOTIDE] to `CC(C)(COP(=O)(O)OP(=O)(O)OCC1OC(n2cnc3c(N)ncnc32)C(O)C1O)C(O)C(=O)NCCC(=O)NCCS` (stereo not drawn) [DEPHOSPHO-COA], the LC retention time rises from 2.13 min to 3.69 min (1.7-fold).

`CC(C)(C)C1(O)CC2OC(=O)CC23C(=O)OC2OC(=O)C(O)C231` (stereo not drawn) [BILOBALIDE] and `C=C1CC23CC1(O)CCC2C12C=CC(O)C(C)(C(=O)O1)C2C3C(=O)O` (stereo not drawn) [GIBBERELLIN A3] are within 1.5-fold of each other in LC retention time: 4.91 min for the first, 5.05 min for the second.

Going from `CCCCCCC(N)C(=O)O` (racemic) [DL-2-AMINOOCTANOIC ACID] to `NC(CCS)C(=O)O` (stereo not drawn) [HOMOCYSTEINE], the LC retention time falls from 4.04 min to 0.963 min (4.2-fold).

`O=C(O)CP(=O)(O)O` [PHOSPHONOACETATE] and `Nc1ncnc2c1ncn2C1OC(COP(=O)(O)O)C(O)C1O` (stereo not drawn) [ADENOSINE-MONOPHOSPHATE] are within 1.5-fold of each other in LC retention time: 0.959 min for the first, 1.35 min for the second.

First: CC1OC(OC2C(Oc3cc(O)c4c(c3)OC(c3ccc(O)cc3)CC4=O)OC(CO)C(O)C2O)C(O)C(O)C1O (stereo not drawn) [NARINGIN]
Second: Cc1cn(C2CC(O)C(COP(=O)(O)OP(=O)(O)OC3OC(CO)C(O)C(O)C3O)O2)c(=O)[nH]c1=O [DTDP-D-GLUCOSE]
The LC retention time of the first is 2.6-fold higher: 4.7 min for the first, 1.82 min for the second.

`CC1=C(O)C(=O)C=C2C1=CC=C1C2(C)CCC2(C)C3CC(C)(C(=O)O)CCC3(C)CCC12C` (stereo not drawn) [CELASTROL] and `C=C1CC2(O)OC3(CC2C(C)C)C(C)CCC13` (stereo not drawn) [CURCUMOL] are within 1.5-fold of each other in LC retention time: 8.6 min for the first, 7.93 min for the second.

`Cc1cc2nc3c(=O)[nH]c(=O)nc-3n(CC(O)C(O)C(O)COP(=O)(O)OP(=O)(O)OCC3OC(n4cnc5c(N)ncnc54)C(O)C3O)c2cc1C` (stereo not drawn) [FAD] and `Nc1ncnc2c1ncn2C1CC(O)C(CO)O1` (stereo not drawn) [DEOXYADENOSINE] are within 1.5-fold of each other in LC retention time: 4.15 min for the first, 3.33 min for the second.

Compared with `c1ncc2[nH]cnc2n1` [PURINE], `COc1ccc(-c2coc3cc(O)cc(O)c3c2=O)cc1` [BIOCHANIN A] is 3.2-fold higher in LC retention time: 2.2 min for the first, 7.15 min for the second.

`O=C(O)CCCCC1SCC2NC(=O)NC21` (stereo not drawn) [BIOTIN] showed an LC retention time of 4.59 min.
